{
  "source": "paper PMC5218480",
  "about": "(PLoS ONE, 2017)",
  "system": "MV-4-11 cells",
  "experiment": "Gene expression microarray analysis (Affymetrix PrimeView) and GSEA",
  "type": "cell-based, human",
  "design": "RFU PODN (11730768_x_at) / Fold change /veh PODN (11730768_x_at) / RFU LINC00158 (11744669_a_at) / Fold change /veh LINC00158 (11744669_a_at) / RFU DUSP10 (11751237_a_at) / Fold change /veh DUSP10 (11751237_a_at) / RFU ID3 (11757404_x_at) / Fold change /veh ID3 (11757404_x_at) / RFU PLEKHG5 (11737974_s_at) / Fold change /veh PLEKHG5 (11737974_s_at) / RFU LRRC4B (11730491_at) / Fold change /veh LRRC4B (11730491_at) / RFU GIMAP4 (11747438_a_at) / Fold change /veh GIMAP4 (11747438_a_at) / RFU KRT8 (11758183_x_at) / Fold change /veh KRT8 (11758183_x_at) / RFU CNN1 (11734310_a_at) / Fold change /veh CNN1 (11734310_a_at) / RFU VPS37D (11726825_at) / Fold change /veh VPS37D (11726825_at) / RFU C10orf10 (11716522_x_at) / Fold change /veh C10orf10 (11716522_x_at) / RFU KIR2DL2 /// KIR2DL4 /// KIR2DL5A /// KIR2DL5B /// KIR2DS1 /// KIR2DS2 /// KIR2DS3 /// KIR2DS4 /// KIR3DL3 /// KIR3DL3 /// KIR3DS1 (11738374_at) / Fold change /veh KIR2DL2 /// KIR2DL4 /// KIR2DL5A /// KIR2DL5B /// KIR2DS1 /// KIR2DS2 /// KIR2DS3 /// KIR2DS4 /// KIR3DL3 /// KIR3DL3 /// KIR3DS1 (11738374_at) / RFU C1QL1 (11718748_at) / Fold change /veh C1QL1 (11718748_at) / RFU TMPRSS4 (11747572_a_at) / Fold change /veh TMPRSS4 (11747572_a_at) / RFU HAMP (11756126_x_at) / Fold change /veh HAMP (11756126_x_at) / RFU RNFT2 (11725882_a_at) / Fold change /veh RNFT2 (11725882_a_at) / RFU NR4A2 (11747474_a_at) / Fold change /veh NR4A2 (11747474_a_at) / RFU ABCC12 (11746883_a_at) / Fold change /veh ABCC12 (11746883_a_at) / RFU TMEM136 (11760407_x_at) / Fold change /veh TMEM136 (11760407_x_at) / RFU CLDN22 /// WWC2 (11732394_at) / Fold change /veh CLDN22 /// WWC2 (11732394_at) / RFU HLA-DPB1 (11760878_x_at) / Fold change /veh HLA-DPB1 (11760878_x_at) / RFU SPINT1 (11716480_a_at) / Fold change /veh SPINT1 (11716480_a_at) / RFU GAP43 (11754022_s_at) / Fold change /veh GAP43 (11754022_s_at) / RFU A4GNT (11735810_at) / Fold change /veh A4GNT (11735810_at) / RFU PRB3 (11715151_x_at) / Fold change /veh PRB3 (11715151_x_at) / RFU TUBB4B (11761932_at) / Fold change /veh TUBB4B (11761932_at) / RFU CAPN14 (11732068_a_at) / Fold change /veh CAPN14 (11732068_a_at) / RFU TMCC2 (11721928_a_at) / Fold change /veh TMCC2 (11721928_a_at) / RFU IRGQ (11745062_a_at) / Fold change /veh IRGQ (11745062_a_at) / RFU FAM174B (11720279_a_at) / Fold change /veh FAM174B (11720279_a_at) / RFU TMPRSS4 (11748680_a_at) / Fold change /veh TMPRSS4 (11748680_a_at) / RFU FAM212B (11763350_a_at) / Fold change /veh FAM212B (11763350_a_at) / RFU PLEKHG5 (11743358_a_at) / Fold change /veh PLEKHG5 (11743358_a_at) / RFU ZSCAN30 (11745921_a_at) / Fold change /veh ZSCAN30 (11745921_a_at) / RFU CMKLR1 (11741424_a_at) / Fold change /veh CMKLR1 (11741424_a_at) / RFU LOC101060620 /// MAPK8IP1 (11723275_at) / Fold change /veh LOC101060620 /// MAPK8IP1 (11723275_at) / RFU SPTSSB (11747773_x_at) / Fold change /veh SPTSSB (11747773_x_at) / RFU PRSS12 (11739890_at) / Fold change /veh PRSS12 (11739890_at) / RFU BIN1 (11741810_x_at) / Fold change /veh BIN1 (11741810_x_at) / RFU WNT11 (11732464_a_at) / Fold change /veh WNT11 (11732464_a_at) / RFU C10orf10 (11716521_a_at) / Fold change /veh C10orf10 (11716521_a_at) / RFU C5orf56 (11738089_at) / Fold change /veh C5orf56 (11738089_at) / RFU CYB561 (11721691_x_at) / Fold change /veh CYB561 (11721691_x_at) / RFU ANKRD19P (11752326_a_at) / Fold change /veh ANKRD19P (11752326_a_at) / RFU OR2T12 /// OR2T33 /// OR2T8 (11738714_s_at) / Fold change /veh OR2T12 /// OR2T33 /// OR2T8 (11738714_s_at) / RFU VCAN (11748164_a_at) / Fold change /veh VCAN (11748164_a_at) / RFU JSRP1 (11732532_at) / Fold change /veh JSRP1 (11732532_at) / RFU KRTAP10-11 (11738290_x_at) / Fold change /veh KRTAP10-11 (11738290_x_at) / RFU MYO3A (11730013_a_at) / Fold change /veh MYO3A (11730013_a_at) / RFU EBF3 (11725865_a_at) / Fold change /veh EBF3 (11725865_a_at) / RFU CAMK2N1 (11719241_x_at) / Fold change /veh CAMK2N1 (11719241_x_at) / RFU C5orf56 (11738088_a_at) / Fold change /veh C5orf56 (11738088_a_at) / RFU OLFML3 (11715873_a_at) / Fold change /veh OLFML3 (11715873_a_at) / RFU LOC100653217 /// NTM (11731650_a_at) / Fold change /veh LOC100653217 /// NTM (11731650_a_at) / RFU MAPK11 (11762145_a_at) / Fold change /veh MAPK11 (11762145_a_at) / RFU FIZ1 (11724087_x_at) / Fold change /veh FIZ1 (11724087_x_at) / RFU OASL (11726364_x_at) / Fold change /veh OASL (11726364_x_at) / RFU SOX15 (11748057_x_at) / Fold change /veh SOX15 (11748057_x_at) / RFU CD79A (11719716_a_at) / Fold change /veh CD79A (11719716_a_at) / RFU HIST1H1D (11736915_at) / Fold change /veh HIST1H1D (11736915_at) / RFU CASKIN2 (11723855_a_at) / Fold change /veh CASKIN2 (11723855_a_at) / RFU LOC730098 (11760151_x_at) / Fold change /veh LOC730098 (11760151_x_at) / RFU OR4N2 (11742367_at) / Fold change /veh OR4N2 (11742367_at) / RFU PRRT2 (11749266_a_at) / Fold change /veh PRRT2 (11749266_a_at) / RFU SNX32 (11753110_a_at) / Fold change /veh SNX32 (11753110_a_at) / RFU CDHR5 (11726645_a_at) / Fold change /veh CDHR5 (11726645_a_at) / RFU RCAN1 (11760418_a_at) / Fold change /veh RCAN1 (11760418_a_at) / RFU FAM167A (11723789_a_at) / Fold change /veh FAM167A (11723789_a_at) / RFU FAM26E (11764081_at) / Fold change /veh FAM26E (11764081_at) / RFU ISYNA1 (11749810_s_at) / Fold change /veh ISYNA1 (11749810_s_at) / RFU ACY1 (11761880_at) / Fold change /veh ACY1 (11761880_at) / RFU 11764098_at / Fold change /veh 11764098_at / RFU SAMD14 (11745864_x_at) / Fold change /veh SAMD14 (11745864_x_at) / RFU NPB (11741838_a_at) / Fold change /veh NPB (11741838_a_at) / RFU TMPRSS6 (11731388_a_at) / Fold change /veh TMPRSS6 (11731388_a_at) / RFU KRTAP10-2 (11738614_at) / Fold change /veh KRTAP10-2 (11738614_at) / RFU ARHGAP8 /// PRR5-ARHGAP8 (11727945_x_at) / Fold change /veh ARHGAP8 /// PRR5-ARHGAP8 (11727945_x_at) / RFU KRTAP5-7 /// NADSYN1 (11734609_at) / Fold change /veh KRTAP5-7 /// NADSYN1 (11734609_at) / RFU RASL12 (11751679_a_at) / Fold change /veh RASL12 (11751679_a_at) / RFU CDKN2B (11736163_a_at) / Fold change /veh CDKN2B (11736163_a_at) / RFU PRF1 (11729649_at) / Fold change /veh PRF1 (11729649_at) / RFU, ZNF638 /// ZNF638-IT1 / Fold change vs veh, ZNF638 /// ZNF638-IT1 / RFU, PANK3 / Fold change vs veh, PANK3 / RFU, SH3YL1 / Fold change vs veh, SH3YL1 / RFU, ZEB2 / Fold change vs veh, ZEB2 / RFU, NRIP1 / Fold change vs veh, NRIP1 / RFU, PTTG1IP / Fold change vs veh, PTTG1IP / RFU, CAPN2 / Fold change vs veh, CAPN2 / RFU, MED14 / Fold change vs veh, MED14 / RFU, SNORA58 / Fold change vs veh, SNORA58 / RFU, C1orf63 / Fold change vs veh, C1orf63 / RFU, LRRFIP1 / Fold change vs veh, LRRFIP1 / RFU, NDUFAF7 / Fold change vs veh, NDUFAF7 / RFU, SLC12A2 / Fold change vs veh, SLC12A2 / RFU, IBTK / Fold change vs veh, IBTK / RFU, ESF1 / Fold change vs veh, ESF1 / Fold change vs veh, TMEM50B / RFU, TAOK1 / Fold change vs veh, TAOK1 / RFU, ACBD3 / Fold change vs veh, ACBD3 / RFU, TMA16 / Fold change vs veh, TMA16 / RFU, RWDD3 / Fold change vs veh, RWDD3 / RFU, BCAT1 / Fold change vs veh, BCAT1 / RFU, EDEM3 / Fold change vs veh, EDEM3 / RFU, TMEM33 / Fold change vs veh, TMEM33 / RFU, WDR75 / Fold change vs veh, WDR75 / RFU, AHCTF1 / Fold change vs veh, AHCTF1 / RFU, TFRC / Fold change vs veh, TFRC / RFU, ZDHHC17 / Fold change vs veh, ZDHHC17 / RFU, NOM1 / Fold change vs veh, NOM1 / RFU, ARL8B / Fold change vs veh, ARL8B / RFU, ZBTB11 / Fold change vs veh, ZBTB11 / RFU, TAMM41 / Fold change vs veh, TAMM41 / RFU, KIAA1704 /// LOC100996395 / Fold change vs veh, KIAA1704 /// LOC100996395 / RFU, ING1 / Fold change vs veh, ING1 / RFU, TRMT61B / Fold change vs veh, TRMT61B / RFU, FUBP3 / Fold change vs veh, FUBP3 / RFU, TP53 / Fold change vs veh, TP53 / RFU, TNKS2 / Fold change vs veh, TNKS2 / RFU, ZFP14 / Fold change vs veh, ZFP14 / RFU, ACTR2 / Fold change vs veh, ACTR2 / RFU, PPP3R1 / Fold change vs veh, PPP3R1 / RFU, PIK3R1 / Fold change vs veh, PIK3R1 / RFU, HNRNPA1 / Fold change vs veh, HNRNPA1 / RFU, RNF170 / Fold change vs veh, RNF170 / RFU, ZNF28 / Fold change vs veh, ZNF28 / RFU, RNGTT / Fold change vs veh, RNGTT / RFU, OGT / Fold change vs veh, OGT / RFU, BRD1 / Fold change vs veh, BRD1 / RFU, MARS / Fold change vs veh, MARS / RFU, ZNF655 / Fold change vs veh, ZNF655 / RFU, FAHD1 / Fold change vs veh, FAHD1 / RFU, BDP1 / Fold change vs veh, BDP1 / RFU, LRRCC1 / Fold change vs veh, LRRCC1 / RFU, ARID1A / Fold change vs veh, ARID1A / RFU, ZNF146 / Fold change vs veh, ZNF146 / RFU, ZNF330 / Fold change vs veh, ZNF330 / RFU, GPN3 / Fold change vs veh, GPN3 / RFU, C9orf123 / Fold change vs veh, C9orf123 / RFU, N4BP2L2 / Fold change vs veh, N4BP2L2 / RFU, ARFIP1 / Fold change vs veh, ARFIP1 / RFU, FAM179B / Fold change vs veh, FAM179B / RFU, BCL10 / Fold change vs veh, BCL10 / RFU, UHRF1BP1L / Fold change vs veh, UHRF1BP1L / RFU, BET1 / Fold change vs veh, BET1 / RFU, CNOT2 / Fold change vs veh, CNOT2 / RFU, ZNF268 / Fold change vs veh, ZNF268 / Fold change vs veh, ZNF507 / RFU, DGCR2 / Fold change vs veh, DGCR2 / RFU, WDSUB1 / Fold change vs veh, WDSUB1 / Fold change vs veh, HSP90B1 /// MIR3652 / RFU, ADSS / Fold change vs veh, ADSS / RFU, GK / Fold change vs veh, GK / RFU, ZNF148 / Fold change vs veh, ZNF148 / RFU, TAF9 / Fold change vs veh, TAF9 / RFU, SLC1A5 / Fold change vs veh, SLC1A5 / RFU, SLMO2 / Fold change vs veh, SLMO2 / RFU, ABCC4 / Fold change vs veh, ABCC4 / RFU, LOC101060439 /// RAP1B / Fold change vs veh, LOC101060439 /// RAP1B / RFU, RFX7 / Fold change vs veh, RFX7 / RFU, GTPBP10 / Fold change vs veh, GTPBP10 / RFU, CNEP1R1 / Fold change vs veh, CNEP1R1 / RFU, BIVM-ERCC5 /// ERCC5 / Fold change vs veh, BIVM-ERCC5 /// ERCC5 / RFU, ILF3 / Fold change vs veh, ILF3 / RFU 11762660_at / Fold change /veh 11762660_at / RFU VCAN (11757783_s_at) / Fold change /veh VCAN (11757783_s_at) / RFU DDX43 (11728927_at) / Fold change /veh DDX43 (11728927_at) / RFU KRT8 (11758188_x_at) / Fold change /veh KRT8 (11758188_x_at) / RFU NKD1 (11759106_at) / Fold change /veh NKD1 (11759106_at) / RFU SRD5A1 (11742802_a_at) / Fold change /veh SRD5A1 (11742802_a_at) / RFU TPSAB1 /// TPSB2 (11721975_s_at) / Fold change /veh TPSAB1 /// TPSB2 (11721975_s_at) / RFU GSTM3 (11746129_a_at) / Fold change /veh GSTM3 (11746129_a_at) / RFU IL23R (11737362_x_at) / Fold change /veh IL23R (11737362_x_at) / RFU TMEM51 (11727254_a_at) / Fold change /veh TMEM51 (11727254_a_at) / RFU PIWIL2 (11732686_x_at) / Fold change /veh PIWIL2 (11732686_x_at) / RFU ORM1 (11744905_x_at) / Fold change /veh ORM1 (11744905_x_at) / RFU CCDC152 (11743942_at) / Fold change /veh CCDC152 (11743942_at) / RFU ECM1 (11717891_a_at) / Fold change /veh ECM1 (11717891_a_at) / RFU IL23R (11748794_a_at) / Fold change /veh IL23R (11748794_a_at) / RFU TNFAIP8L3 (11732012_x_at) / Fold change /veh TNFAIP8L3 (11732012_x_at) / RFU MBOAT4 (11741988_at) / Fold change /veh MBOAT4 (11741988_at) / RFU 11764193_at / Fold change /veh 11764193_at / RFU TMEM53 (11763286_at) / Fold change /veh TMEM53 (11763286_at) / RFU MAGEB2 (11727129_at) / Fold change /veh MAGEB2 (11727129_at) / RFU TMEM200A (11744735_a_at) / Fold change /veh TMEM200A (11744735_a_at) / RFU CCDC152 (11751479_a_at) / Fold change /veh CCDC152 (11751479_a_at) / RFU FAM211A (11726209_a_at) / Fold change /veh FAM211A (11726209_a_at) / RFU RGS16 (11746705_a_at) / Fold change /veh RGS16 (11746705_a_at) / RFU VCAN (11755009_s_at) / Fold change /veh VCAN (11755009_s_at) / RFU RHOB (11743442_s_at) / Fold change /veh RHOB (11743442_s_at) / RFU RGS16 (11720943_a_at) / Fold change /veh RGS16 (11720943_a_at) / RFU RGS16 (11720944_at) / Fold change /veh RGS16 (11720944_at) / RFU, VPS4B / Fold change vs veh, VPS4B / RFU, CREB1 / Fold change vs veh, CREB1 / RFU, DNAJC13 / Fold change vs veh, DNAJC13 / RFU, GNAQ / Fold change vs veh, GNAQ / RFU, CDK5R1 / Fold change vs veh, CDK5R1 / RFU, ZRANB3 / Fold change vs veh, ZRANB3 / RFU, CUL4A / Fold change vs veh, CUL4A / RFU, CCNY / Fold change vs veh, CCNY / RFU, UFL1 / Fold change vs veh, UFL1 / RFU, COG3 / Fold change vs veh, COG3 / RFU, DIAPH2 / Fold change vs veh, DIAPH2 / RFU, SKA2 / Fold change vs veh, SKA2 / RFU, AFF3 / Fold change vs veh, AFF3 / RFU, LMF1 / Fold change vs veh, LMF1 / RFU, IPO11 / Fold change vs veh, IPO11 / RFU, DFFB / Fold change vs veh, DFFB / RFU, FOXP1 / Fold change vs veh, FOXP1 / RFU, CARD8 / Fold change vs veh, CARD8 / RFU, STRN3 / Fold change vs veh, STRN3 / RFU, ADK / Fold change vs veh, ADK / RFU, RASSF2 / Fold change vs veh, RASSF2 / RFU, WIPF1 / Fold change vs veh, WIPF1 / RFU, LARP1B / Fold change vs veh, LARP1B / RFU, RASA1 / Fold change vs veh, RASA1 / RFU, RB1 / Fold change vs veh, RB1 / RFU, PPFIA1 / Fold change vs veh, PPFIA1 / RFU, MAT2A / Fold change vs veh, MAT2A / RFU, CCT5 / Fold change vs veh, CCT5 / RFU, WDR92 / Fold change vs veh, WDR92 / RFU, CUX1 / Fold change vs veh, CUX1 / RFU, TTC7A / Fold change vs veh, TTC7A / RFU, TMEM135 / Fold change vs veh, TMEM135 / RFU, DEPTOR / Fold change vs veh, DEPTOR / RFU, CPM / Fold change vs veh, CPM / RFU, DNAJB6 / Fold change vs veh, DNAJB6 / RFU, CACNA2D3 / Fold change vs veh, CACNA2D3 / RFU, DTX4 / Fold change vs veh, DTX4 / RFU, TFCP2 / Fold change vs veh, TFCP2 / RFU, GMCL1 /// GMCL1P1 / Fold change vs veh, GMCL1 /// GMCL1P1 / RFU, AEBP2 / Fold change vs veh, AEBP2 / RFU, SNHG1 /// SNORD22 /// SNORD25 /// SNORD26 /// SNORD27 /// SNORD28 /// SNORD29 /// SNORD31 / Fold change vs veh, SNHG1 /// SNORD22 /// SNORD25 /// SNORD26 /// SNORD27 /// SNORD28 /// SNORD29 /// SNORD31 / Fold change (Aza/veh), C12orf56 (ProbeSet 11735607_a_at) / Fold change (ACY-1035/veh), C12orf56 (ProbeSet 11735607_a_at) / Fold change (Aza/veh), FGFR1OP (ProbeSet 11751329_s_at) / Fold change (ACY-1035/veh), FGFR1OP (ProbeSet 11751329_s_at) / Fold change (Aza/veh), VPS36 (ProbeSet 11739960_a_at) / Fold change (ACY-1035/veh), VPS36 (ProbeSet 11739960_a_at) / RFU SYPL1 (11715823_x_at) / Fold change /veh SYPL1 (11715823_x_at) / RFU IGFBP7 (11715501_s_at) / Fold change /veh IGFBP7 (11715501_s_at) / RFU REEP3 (11722064_at) / Fold change /veh REEP3 (11722064_at) / RFU IGLL1 (11728026_x_at) / Fold change /veh IGLL1 (11728026_x_at): dose or concentration left out as unconfirmed",
  "details": "ProbeSet 11754607_s_at; LIST B",
  "data": [
    {"smiles": "Nc1ccc(-c2cccs2)cc1NC(=O)c1ccc2c(c1)cc(C1CC1)n2CCN1CCOCC1", "note": "[ACY-1035]", "values": [
      {"measurement": "Fold change vs veh, HSP90B1 /// MIR3652", "result": 0.87}
    ]}
  ]
}
